A word on the pIC50: it is −log10 of the IC50, conventionally taken in molar units.

pIC50: −log10 of the molar value. Where two headings read alike, the source gives them in different places.

Data set [1] deals with Pol-β (Homo sapiens, UniProt P06746). Kind of data set: In vitro base excision repair (BER) assay with 32P-U-DNA substrate. In kind it is biochemical. The following applies: dose-dependent manner (FIG. 2B). From the text: The reaction conditions are described below. […] Data are representative of three different experiments.
An assay was developed that permits in vitro analysis of BER as described in FIG. 2A.

For data set [2], the system named is T47D and MCF7 human breast cancer cell lines. Briefly: Cytotoxicity by clonogenic assay (FIG. 3 legend), T47D and MCF7 stated jointly. In kind it is cell-based. The note with it: one value for both, read-out: IC50, agent alone.
Data set [3] relates to MDA-MB468 and MDA-MB-231 human breast cancer cell lines. Briefly: Cytotoxicity by clonogenic assay (FIG. 4 legend), MDA-MB468 and MDA-MB-231 stated jointly. In kind it is cell-based. The following applies: MDA-MB468 and MDA-MB-231 cell lines, one value for both; read-out: IC50, agent alone. The protocol: After 48 hours, drugs were withdrawn and allowed to grow in fresh medium for determination of cytotoxicity by clonogenic assay. Data presented are the mean±SE of three different estimations. […] Data presented are the mean+/−SE of three different estimations.

The test system of data set [4] is MCF7, T47D, MDA-MB-231 and MDA-MB-468 human breast cancer cell lines. Kind of data set: Clonogenic assay (Example 5, FIG. 8), four breast cancer cell lines stated jointly. The note with it: one value for all cell lines of FIG. 8, read-out: IC50, agent alone. The format is cell-based. The protocol: (§1) After 48 hours, drugs were withdrawn and allowed to grow in fresh medium for determination of cytotoxicity by clonogenic assay. The data presented are the mean±SE of three different estimations.
(§2) To test this hypothesis, the IC50 of TMZ in four human breast cancer cell lines was determined using a clonogenic assay (Vachai et al., Nat. Proto. 3: 1122-1116, 2006). The cell lines used were MCF7, T47D (both ER/PR/HER2-positive), MDA-MB-231 and MDA-MB-468 (both triple-negative).

Data set [5] relates to MDA-MB-468 breast cancer cells. Briefly: Sulforhodamine B (SRB) colorimetric cytotoxicity assay, MDA-MB-468. The note with it: for pIC50: read-out: IC50 (cytotoxicity), agent alone.
For data set [6], the system named is T47D breast cancer cells. Kind of data set: Sulforhodamine B (SRB) colorimetric cytotoxicity assay, T47D. In kind it is cell-based, human. The note with it: for pIC50: read-out: IC50 (cytotoxicity), agent alone. The protocol: Data are the mean±SE of three different estimations.
The developed color was measured at 564 nm.

Data set [7] concerns MDA-MB-231 breast cancer cells. Briefly: Sulforhodamine B (SRB) colorimetric cytotoxicity assay, MDA-MB-231. The note with it: for pIC50: read-out: IC50 (cytotoxicity), agent alone.
Data set [8] concerns MCF7 breast cancer cells. Kind of data set: Sulforhodamine B (SRB) colorimetric cytotoxicity assay, MCF7. The note with it: for pIC50: read-out: IC50 (cytotoxicity), agent alone. The protocol:
After 48 hours, cells were harvested and processed for cytotoxicity determination by clonogenic assay. Data presented are the mean±SE of three different estimations.
The IC50 (the drug concentration needed to prevent cell proliferation by 50%) of TMZ was determined using a sulforhodamine B (SRB) colorimetric assay. This assay relies on the ability of SRB to bind the protein components of cells that have been fixed to tissue culture plates by trichloroacetic acid (TCA) (Vachai V, Kirtikara K. Sulforhodamine B colorimetric assay for cytotoxicity screening. Nat. Proto. 3: 1122-1116, 2006). MCF7 and T47D cells were seeded in 96-well plates at a density of 500 cells per well. After 24 hours, while the cells were in the log phase of cell growth, the cells were treated with different concentrations of TMZ (1-1000 μM) for 48 hours. […] The cells were subsequently fixed with 10% (w/v) of tricholoroacetic acid, washed with double distilled water, and stained with 0.4% SRB. Cells were then repeatedly washed with 1% (v/v) of acetic acid to remove the unbound dye. The protein bound dye was dissolved in 10 mM Tris-base solution (pH 10.5). The developed color was measured at 564 nm. The percentage of cell survival as a function of drug concentration was then plotted to determine the IC50 value.

The test system of data set [9] is T47D cells. Briefly: Clonogenic assay (Example 5, FIG. 8), T47D. The following applies: Homo sapiens, 48 hours, then fresh medium, read-out: IC50 of TMZ alone or in the named combination. In kind it is cell-based. The protocol: as §1, §2
In data set [10] the test system is MDA-MB-468 cells. Briefly: Clonogenic assay (Example 5, FIG. 8), MDA-MB-468. In kind it is cell-based. The note with it: Homo sapiens, 48 hours, then fresh medium, read-out: IC50 of TMZ alone or in the named combination. The protocol: as §1, §2
Data set [11] deals with MDA-MB-231 cells. Briefly: Clonogenic assay (Example 5, FIG. 8), MDA-MB-231. In kind it is cell-based. The following applies: Homo sapiens, 48 hours, then fresh medium, read-out: IC50 of TMZ alone or in the named combination. Here is the method: as §1, §2
In data set [12] the test system is MCF7 cells. Kind of data set: Clonogenic assay (Example 5, FIG. 8), MCF7. The note with it: Homo sapiens, 48 hours, then fresh medium, read-out: IC50 of TMZ alone or in the named combination. The format is cell-based. Here is the method:
as §1, §2

Regarding `Nc1cc(I)n([C@H]2C[C@H](O)[C@@H](COP(=O)(O)O)O2)c(=O)n1` [NSC-124854, 5′-cytidylic acid, 2′-deoxy-6-iodo-(9CI)], in data set [1] (32P-U-DNA substrate, in the presence of Fen-1), the strand-displacement synthesis result is “blocked”. Moreover, the “Pol-β-mediated 1-nt incorporation” value in data set [1] (32P-U-DNA substrate) is “blocked”. In addition, the “complete repair of 32P-U-DNA by the SN-BER pathway” value in [1] (with DNA ligase I) is reported as “blocked”. Besides, the “complete repair of 32P-U-DNA by the LP-BER pathway” value in data set [1] (with Fen-1 and DNA ligase I) was “blocked”.
On to `Cc1cc(S(=O)(=O)Nc2n[nH]c(Nc3ccc(Cl)cc3)n2)c(S)cc1Cl` [NSC-666715, Benzosulfonamide, 4-chloro-N-[5-[(4-chlorophenyl)amino]1H-1,2,4-triazol-3-yl]-2-mercapto-5-methyl-(9Cl)], for which the negative logarithm of the IC50 (pIC50) in data set [2] is around 4.00; in [3] it was around 4.00; in data set [4] it was 4.00.
As to `COc1cc(/C=C/C(=O)CC(=O)/C=C/c2ccc(O)c(OC)c2)ccc1O` [curcumin, (1E,6E)-1,7-bis(4-hydroxy-3-methoxy-phenyl)hepta-1,6-diene-3,5-dione], in [4] (Homo sapiens), the pIC50 was 5.30.
For `Nc1nc(OCc2ccccc2)c2nc[nH]c2n1` [BG, O^6-benzylguanine], the negative logarithm of the IC50 (pIC50) in data set [5] (MDA-MB-468 cells, 48 hours) was around 4.00; in data set [6] (T47D cells, 48 hours) it was around 3.83; in data set [2] it was around 4.12; in data set [7] (MDA-MB-231 cells, 48 hours), around 4.11; in data set [3] it was around 4.12; in [8] (MCF7 cells, 48 hours), around 4.04.
In the case of `Cn1nnc2c(C(N)=O)ncn2c1=O` [TMZ, Temozolomide], the negative logarithm of the IC50 (pIC50) in [9] was 3.48; in [5] (Homo sapiens, MDA-MB-468, 48 h), 3.50; in [6] (Homo sapiens, T47D, 48 h), 3.52; in data set [10] it was 3.53; in data set [11], 3.48; in data set [7] (Homo sapiens, MDA-MB-231, 48 h) it was 3.46. Further, the pIC50 in data set [12] was 3.48; in data set [8] (Homo sapiens, MCF7, 48 h), 3.52. In addition, the “reduction of the IC50 of TMZ” value in data set [5] (MDA-MB-468 cells, TMZ with BG (2.5 μM)) was “about 6 fold”; in [5] (MDA-MB-468 cells, TMZ with NSC-666715 (15 μM)), “about 0.1 fold”; in data set [5] (MDA-MB-468 cells, TMZ with both BG (2.5 μM) and NSC-666715 (15 μM)), “about 15 fold”; in data set [6] (T47D cells, TMZ with BG (2.5 μM)), “about 4 fold”; in data set [6] (T47D cells, TMZ with NSC-666715 (15 μM)), “about 1.1 fold”; in data set [6] (T47D cells, TMZ with both BG (2.5 μM) and NSC-666715 (15 μM)), “about 8 fold”. In addition, the “reduction of the IC50 of TMZ” value in [7] (MDA-MB-231 cells, TMZ with BG (2.5 μM)) is “about 2.8 fold”; in [7] (MDA-MB-231 cells, TMZ with NSC-666715 (15 μM)) it was “about 1.5 fold”; in data set [7] (MDA-MB-231 cells, TMZ with both BG (2.5 μM) and NSC-666715 (15 μM)), “about 6.6 fold”; in data set [8] (MCF7 cells, TMZ with BG (2.5 μM)) it was “about 4 fold”; in data set [8] (MCF7 cells, TMZ with NSC-666715 (15 μM)), “about 1.5 fold”; in data set [8] (MCF7 cells, TMZ with both BG (2.5 μM) and NSC-666715 (15 μM)), “about 7 fold”. The “reduction in the IC50 of TMZ” value in data set [8] (NSC-666715 and O6-benzylguanine in combination with temozolomide, cell line not stated at this place (figure matches MCF7)) is 7 fold.

The values above are taken from US8815828B2, “Therapeutic combinations for use in neoplasia” (University of Florida Research Foundation, Inc., priority 2008, dated 2014).
